In PubChem BioAssay (NCI):
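Assay format: 96-well plates, 48-hour exposure. GI50 = concentration required for 50% inhibition of growth. TGI is the concentration that stops growth completely.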

Assays:
Test in all cases: inhibition of tumour cell growth, NCI panel, 48 h
HT29 colon = test system: HT29 colon
SF-539 CNS = test system: SF-539 CNS
HOP-92 NSCLC = test system: HOP-92 NSCLC
SF-295 CNS = test system: SF-295 CNS
SNB-75 CNS = test system: SNB-75 CNS
IGROV1 ovarian = test system: IGROV1 ovarian
EKVX NSCLC = test system: EKVX NSCLC
DU-145 prostate = test system: DU-145 prostate
A498 renal = test system: A498 renal
ACHN renal = test system: ACHN renal
NCI-H522 lung = test system: NCI-H522 lung
HCT-15 colon = test system: HCT-15 colon
U251 CNS = test system: U251 CNS
MCF7 breast = test system: MCF7 breast
CAKI-1 renal = test system: CAKI-1 renal
CCRF-CEM leukemia = test system: CCRF-CEM leukemia
SK-MEL-2 melanoma = test system: SK-MEL-2 melanoma
HCC-2998 colon = test system: HCC-2998 colon
HL-60(TB) leukemia = test system: HL-60(TB) leukemia
M14 melanoma = test system: M14 melanoma
BT-549 breast = test system: BT-549 breast
SW-620 colon = test system: SW-620 colon
TK-10 renal = test system: TK-10 renal
NCI/ADR-RES ovarian = test system: NCI/ADR-RES ovarian
SK-MEL-5 melanoma = test system: SK-MEL-5 melanoma
T-47D breast = test system: T-47D breast
SF-268 CNS = test system: SF-268 CNS
COLO 205 colon = test system: COLO 205 colon

O=CNc1ccc2c(c1)Cc1cc([N+](=O)[O-])ccc1-2
GI50 (HT29 colon): 4.5 µM
TGI (HT29 colon): > 100 µM
GI50 (SF-539 CNS): 4.14 µM
TGI (SF-539 CNS): > 100 µM
GI50 (HOP-92 NSCLC): 6.97 µM
TGI (HOP-92 NSCLC): > 100 µM
GI50 (SF-295 CNS): 0.981 µM
TGI (SF-295 CNS): > 100 µM
GI50 (SNB-75 CNS): 3.02 µM
TGI (SNB-75 CNS): > 59.5 µM
GI50 (IGROV1 ovarian): 3.95 µM
TGI (IGROV1 ovarian): > 100 µM
GI50 (EKVX NSCLC): 0.657 µM
TGI (EKVX NSCLC): > 100 µM
GI50 (DU-145 prostate): 2.83 µM
TGI (DU-145 prostate): > 100 µM
GI50 (A498 renal): 2.02 µM
TGI (A498 renal): > 58.1 µM
GI50 (ACHN renal): 6.52 µM
TGI (ACHN renal): > 100 µM
GI50 (NCI-H522 lung): 1.85 µM
TGI (NCI-H522 lung): 7.56 µM
GI50 (HCT-15 colon): 2.86 µM
TGI (HCT-15 colon): > 100 µM
GI50 (U251 CNS): 2.97 µM
TGI (U251 CNS): > 100 µM
GI50 (MCF7 breast): 0.561 µM
TGI (MCF7 breast): > 100 µM
GI50 (CAKI-1 renal): 3.29 µM
TGI (CAKI-1 renal): > 100 µM
GI50 (CCRF-CEM leukemia): 1.31 µM
TGI (CCRF-CEM leukemia): > 100 µM
GI50 (SK-MEL-2 melanoma): 3.58 µM
TGI (SK-MEL-2 melanoma): > 100 µM
GI50 (HCC-2998 colon): 1.3 µM
TGI (HCC-2998 colon): > 100 µM
GI50 (HL-60(TB) leukemia): 3.21 µM
TGI (HL-60(TB) leukemia): > 100 µM
GI50 (M14 melanoma): 0.291 µM
TGI (M14 melanoma): > 100 µM
GI50 (BT-549 breast): 2.93 µM
TGI (BT-549 breast): > 100 µM
GI50 (SW-620 colon): 2.05 µM
TGI (SW-620 colon): > 100 µM
GI50 (TK-10 renal): 10.2 µM
TGI (TK-10 renal): > 100 µM
GI50 (NCI/ADR-RES ovarian): 2.77 µM
TGI (NCI/ADR-RES ovarian): > 100 µM
GI50 (SK-MEL-5 melanoma): 1.53 µM
TGI (SK-MEL-5 melanoma): > 100 µM
GI50 (T-47D breast): > 100 µM
TGI (T-47D breast): > 100 µM
GI50 (SF-268 CNS): 5.02 µM
TGI (SF-268 CNS): > 100 µM
GI50 (COLO 205 colon): 2.87 µM
TGI (COLO 205 colon): > 100 µM
